Data reported in paper PMC9388731, “Radiosynthesis and First Preclinical Evaluation of the Novel ^11C-Labeled FAP Inhibitor ^11C-FAPI: A Comparative Study of ^11C-FAPIs and (^68Ga) Ga-DOTA-FAPI-04 in a High–FAP-Expression Mouse Model” (Frontiers in Chemistry, 2022).
“And” between values parts separate entries of the source, which are not always exact repeats. Equal values may be shown once.

Assays:
[1] = test system: U87MG tumor xenografts; experiment: Biodistribution (ex vivo γ-counting of organs) in U87MG tumor xenograft mice; parameters: species or system nude mice (female BALB/c nu/nu); conditions: for Tumor uptake: i.v., mean ± SD, n = 3
Experimental: (§1) All animal experimental procedures and protocols were approved by the Institutional Animal Care and Use Committee (Renji Hospital, School of Medicine, Shanghai Jiao Tong University). For subcutaneous models, U87MG cells (2 × 10^6 cells in 100 μl PBS) were implanted into the right flank of female BALB/c nu/nu athymic mice to establish subcutaneous tumor xenografts. For orthotopic xenografts, U87MG cells (0.5 × 10^6 cells in […] PBS) were transplanted into the brains of female BALB/c nude mice (4–6 weeks old). The subcutaneous and orthotopic models were ready for PET imaging 3 weeks after tumor cell inoculation.
U87MG mice were injected with 3.7 MBq of each tracer and sacrificed at different times (30, 60, and 90 min p.i.; n = 3 for each time point). The main organs, including the kidney, intestine, liver, heart, lung, muscle, brain, and tumors, were isolated, weighed, and analyzed. The biodistribution in the [^68Ga] Ga-DOTA-FAPI-04 group (3.7 MBq) with approximately 100 μg of unlabeled DOTA-FAPI-04 was also evaluated for comparison. The radioactivity of the samples was determined using an automated γ-counter (Perkin-Elmer), and the uptake of the radiotracers in different organs/tissues was calculated and presented as percent of injected dose per Gram of tissue (%ID/g, mean ± SD).

[2] = In vitro stability in PBS at 37°C (radio-HPLC); assay type: physicochemical; conditions: 150 min
Experimental: The radiochemical purities were analyzed by a radio-HPLC column (C18-B, 250 mm × 4.6 mm, 5 μm, 120 Å, Morhchem Technologies Inc., United States) (details presented in the Supplementary Material).

[3] = test system: U87MG orthotopic xenograft glioma; experiment: Small-animal PET in the U87MG orthotopic xenograft glioma model; assay type: in vivo, nude mice (female BALB/c); conditions: 60 min p.i., n = 3
Experimental: as §1
Ga-DOTA-FAPI-04 were diluted or concentrated to a 74 MBq/mL. […] Ga-DOTA-FAPI-04 was intravenously injected into U87MG tumor-bearing nude mice (n = 3 for each group). For static PET imaging, the acquisition times were 30, 60, and 90 min postinjection (p.i.). Each static scan consists of CT scan and PET scan. The CT scan time is 20 s and the PET scan time is 10 min. […] Regions of interest (ROIs) in the tumor, liver, heart, kidney, brain, and lung were counted on the PET images to quantify the radioactive signals. […] PET data were reconstructed with three-dimensional ordered-subset expectation-maximization (3D-OSEM) algorithm with Monte-Carlo based accurate detector model and subsequently was analyzed with Avatar 1.2 software (Pingseng China).

[4] = test system: FAP; parameters: method as in PMID 32222810; conditions: ref (3); cited from earlier work
[5] = 60 min p.i. (time taken from the order of the sentence)
[6] = 90 min p.i. (time taken from the order of the sentence)
[7] = time printed as 'at 60 and 90 min p.i.', one value per probe

Row | Structure (SMILES) | Brain uptake ([1]; 30 min p.i.) [%ID/g] | Heart uptake ([1]; 30 min p.i.) [%ID/g] | Intestine uptake ([1]; 30 min p.i.) [%ID/g] | Kidney uptake ([1]; 30 min p.i.) [%ID/g] | Liver uptake ([1]; 30 min p.i.) [%ID/g] | Lung uptake ([1]; 30 min p.i.) [%ID/g] | Muscle uptake ([1]; 30 min p.i.) [%ID/g] | T/L ratio (tumor/liver) ([1]; 30 min p.i.) | tumor-to-muscle (T/M) ratio ([1]; 30 min p.i.) | Tumor uptake ([1]; 30 min p.i.) [%ID/g] | Brain uptake ([1]; 60 min p.i.) [%ID/g] | Heart uptake ([1]; 60 min p.i.) [%ID/g] | Intestine uptake ([1]; 60 min p.i.) [%ID/g] | Kidney uptake ([1]; 60 min p.i.) [%ID/g] | Liver uptake ([1]; 60 min p.i.) [%ID/g] | Lung uptake ([1]; 60 min p.i.) [%ID/g] | Muscle uptake ([1]; 60 min p.i.) [%ID/g] | T/L ratio (tumor/liver) ([1]; 60 min p.i.) | tumor-to-muscle (T/M) ratio ([1]; 60 min p.i.) | T/K ratio (tumor/kidney) [1, 5] | also measured
1 | COc1ccc2nccc(C(=O)NCC(=O)N3CCC[C@H]3C#N)c2c1 [^11C-RJ1101, (S)-N-(2-(2-cyanopyrrolidin-1-yl)-2-oxoethyl)-6-(methoxy-11C)quinoline-4-carboxamide] | 0.18 ± 0.02 | 0.59 ± 0.01 | 4.95 ± 0.31 | 1.28 ± 0.06 | 7.20 ± 1.71 | 0.56 ± 0.08 | 0.42 ± 0.04 | 0.19 ± 0.03 | 3.19 ± 0.06 | 1.34 ± 0.10 | 0.02 ± 0.00 | 0.06 ± 0.01 | 2.72 ± 0.45 | 0.17 ± 0.02 | 0.24 ± 0.03 | 0.05 ± 0.01 | 0.06 ± 0.01 | 0.63 ± 0.04 | 2.26 ± 0.25 | 0.89 ± 0.05 | Tumor uptake ([1]; 60 min p.i.): 0.15 ± 0.01 %ID/g; Heart uptake ([1]; 90 min p.i.): 0.01 ± 0.00 %ID/g; Intestine uptake ([1]; 90 min p.i.): 0.67 ± 0.02 %ID/g; Kidney uptake ([1]; 90 min p.i.): 0.03 ± 0.00 %ID/g; Liver uptake ([1]; 90 min p.i.): 0.06 ± 0.00 %ID/g; Lung uptake ([1]; 90 min p.i.): 0.01 ± 0.00 %ID/g; Muscle uptake ([1]; 90 min p.i.): 0.01 ± 0.00 %ID/g; T/L ratio (tumor/liver) ([1]; 90 min p.i.): 0.34 ± 0.06; tumor-to-muscle (T/M) ratio ([1]; 90 min p.i.): 2.00 ± 0.00; T/K ratio (tumor/kidney) [1, 6]: 0.67 ± 0.01; Tumor uptake ([1]; 90 min p.i.): 0.02 ± 0.00 %ID/g; T/K ratio (tumor/kidney) [1, 7]: 1.05 ± 0.03; radioactive purity after incubation in PBS (in vitro stability) [2]: over 99%
2 | [11CH3]Oc1ccc2nccc(C(=O)NCC(=O)N3CC(F)(F)C[C@H]3C#N)c2c1 [^11C-RJ1102, (S)-N-(2-(2-cyano-4,4-difluoropyrrolidin-1-yl)-2-oxoethyl)-6-(methoxy-11C) quinoline-4-carboxamide] | 0.16 ± 0.01 | 0.78 ± 0.10 | 5.08 ± 0.24 | 1.84 ± 0.01 | 2.87 ± 0.12 | 0.65 ± 0.02 | 0.74 ± 0.03 | 0.60 ± 0.03 | 2.30 ± 0.32 and 2.30 ± 0.02 | 1.71 ± 0.08 | 0.07 ± 0.03 | 0.26 ± 0.01 | 2.63 ± 0.28 | 0.48 ± 0.02 | 1.00 ± 0.05 | 0.25 ± 0.03 | 0.20 ± 0.01 | 0.62 ± 0.03 | 3.10 ± 0.14 | 1.29 ± 0.07 | Tumor uptake ([1]; 60 min p.i.): 0.62 ± 0.06 %ID/g; Brain uptake ([1]; 90 min p.i.): 0.02 ± 0.01 %ID/g; Heart uptake ([1]; 90 min p.i.): 0.07 ± 0.01 %ID/g; Intestine uptake ([1]; 90 min p.i.): 1.10 ± 0.25 %ID/g; Kidney uptake ([1]; 90 min p.i.): 0.13 ± 0.02 %ID/g; Liver uptake ([1]; 90 min p.i.): 0.29 ± 0.02 %ID/g; Lung uptake ([1]; 90 min p.i.): 0.06 ± 0.01 %ID/g; Muscle uptake ([1]; 90 min p.i.): 0.04 ± 0.00 %ID/g; T/L ratio (tumor/liver) ([1]; 90 min p.i.): 0.62 ± 0.03; tumor-to-muscle (T/M) ratio ([1]; 90 min p.i.): 4.50 ± 0.50; T/K ratio (tumor/kidney) [1, 6]: 1.39 ± 0.06; Tumor uptake ([1]; 90 min p.i.): 0.18 ± 0.02 %ID/g; T/K ratio (tumor/kidney) [1, 7]: 0.93 ± 0.04; radioactive purity after incubation in PBS (in vitro stability) [2]: over 99%; tumor accumulation (small-animal PET) [3]: 0.22 ± 0.02 ID%/g
3 | COc1ccc2nccc(C(=O)NCC(=O)N3CC(F)(F)C[C@H]3C#N)c2c1 [compound 4, (S)-N-(2-(2-cyano-4,4-difluoropyrrolidin-1-yl)-2-oxoethyl)-6-(methoxy)quinoline-4-carboxamide] | – | – | – | – | – | – | – | – | – | – | – | – | – | – | – | – | – | – | – | – | IC50 [4]: 8.5 ± 0.9 nM
